Source: PMC12959148, “Exploring T. cruzi IMPDH as a promising target through Chagas Box screening and AVN-944 inhibition” (Antimicrobial Agents and Chemotherapy, 2026)
Where “and” joins values, the source holds several entries; their conditions need not be identical. Equal values may be shown once. Entries after “also recorded” stand apart in the source; their conditions may differ. Read-outs that look alike come from different tables or passages of the source.

Key:
[1] = system: recombinant TcIMPDH; assay: TcIMPDH Michaelis-Menten kinetics, NADH fluorescence direct assay; format: biochemical, Trypanosoma cruzi; details: 25°C, pH 7, other substrate at 1 mM, 1 μM enzyme
Description: Em = 485 nm) at 25°C, in black 384-wells microplates. Fluorescence was recorded every 30 s over 10 min using a CLARIOstar plate reader (BMG LabTech) and steady-state velocities were calculated from the maximum slope of the fluorescence curve. All reactions were performed in triplicate, under optimized buffer conditions: 50 mM tri-sodium citrate (pH 7), 100 mM KCl, and 1 mM DTT. For both substrates, 1 μM of purified recombinant […] was used.

[2] = system: T. brucei IMPDH; parameters: method as in PMID 23369253; details: read-out: Km of T. brucei IMPDH for substrate; cited from earlier work
[3] = system: L. donovani IMPDH; details: read-out: Km of L. donovani IMPDH for substrate; cited from earlier work
[4] = system: human IMPDHs; details: read-out: Km of human IMPDHs for substrate; cited from earlier work
[5] = target: T. cruzi IMPDH (Trypanosoma cruzi, UniProt Q4CUG6); assay: biochemical
Description: (§1) Compounds were assayed at a single concentration of 10 μM. They were provided by GSK (GlaxoSmithKline) in a 384-well ready-to-use assay microplate containing 25 nL of each sample at 10 mM (100% DMSO). […] Velocities at steady state were calculated in the plate reader (CLARIOstar, BMG LabTech) as the maximum slope. […] After 15 min, resorufin fluorescence (Ex = 570 nm; Em = 590 nm) was measured in a plate reader (CLARIOstar, BMG LabTech). Data were normalized and plotted using GraphPad Prism 9.5.0.
The above-mentioned diaphorase-coupled assay was used. […] TcIMPDH activity was normalized, and the IC50 was calculated using GraphPad Prism 9.5.0.

[6] = system: T. cruzi amastigotes in H9c2 cells; assay: Image-based infection assay, intracellular amastigotes in H9c2 host cells; format: cell-based; details: Trypanosoma cruzi, read-out: EC50 against T. cruzi amastigotes in H9c2 cells
Description: To determine EC50 to kill intracellular amastigotes in H9c2 host cells, we used an image-based assay previously described in Alonso-Padilla et al. ([56]). Briefly, T. cruzi trypomastigotes (from LLC-MK2 supernatant) were used to infect H9c2 rat cardiomyocytes overnight. After washing, cells were incubated for 48 h in fresh DMEM, then seeded (1.5 × 10^3 cells/well) into 384-well plates with 50 µL assay volume (0.4% DMSO) containing 0.2 µL of compounds. After 72 h, cells were washed, fixed with 4% paraformaldehyde, and stained with Hoechst 33,342 (4 µg/mL). Images (five per well) were acquired using an Operetta microscope (20× objective) and analyzed with Columbus software. Data on cell count and infection ratio were processed in GraphPad Prism 9.5.0.

[7] = system: T. cruzi; parameters: method as in PMID 12070425; details: cited from earlier work
[8] = target: human IMPDH isoenzymes; details: cited from earlier work
[9] = target: TcIMPDH (Trypanosoma cruzi, UniProt Q4CUG6); assay: Chagas Box single-concentration screening for TcIMPDH inhibitors; format: biochemical
Description: as §1

[10] = system: T. cruzi amastigotes; parameters: method as in PMID 25740547; details: calculated from reported pEC50 value; read-out: EC50 anti-amastigote activity, previously reported; cited from earlier work
[11] = system: CYP51; parameters: method as in PMID 25740547; details: cited from earlier work
[12] = read-out: IC50 against T. cruzi IMPDH
[13] = H9c2, 72 h, image-based, at least two biological replicates

T. cruzi IMPDH, sequence (Q4CUG6 entry or part of it): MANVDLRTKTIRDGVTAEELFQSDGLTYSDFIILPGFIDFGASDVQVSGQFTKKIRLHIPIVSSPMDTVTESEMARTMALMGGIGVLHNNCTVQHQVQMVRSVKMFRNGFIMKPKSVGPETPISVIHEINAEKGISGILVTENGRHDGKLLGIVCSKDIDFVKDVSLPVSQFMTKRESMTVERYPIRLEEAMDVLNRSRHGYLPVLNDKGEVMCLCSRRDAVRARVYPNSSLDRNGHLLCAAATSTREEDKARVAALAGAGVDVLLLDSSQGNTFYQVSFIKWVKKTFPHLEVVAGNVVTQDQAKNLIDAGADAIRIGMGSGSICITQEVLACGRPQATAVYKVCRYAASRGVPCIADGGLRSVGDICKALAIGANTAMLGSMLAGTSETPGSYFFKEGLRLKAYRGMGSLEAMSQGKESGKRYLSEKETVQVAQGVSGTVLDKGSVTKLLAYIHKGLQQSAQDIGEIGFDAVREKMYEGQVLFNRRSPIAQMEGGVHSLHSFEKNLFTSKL
TcIMPDH, sequence (Q4CUG6 entry or part of it): as above

Q: What does the source list for `NC(=O)c1ccc[n+]([C@@H]2O[C@H](COP(=O)([O-])OP(=O)(O)OC[C@H]3O[C@@H](n4cnc5c(N)ncnc54)[C@H](O)[C@@H]3O)[C@@H](O)[C@H]2O)c1` [NAD^+, nicotinamide adenine dinucleotide oxidized form]?
A: Km [1]: 292 µM; Km [2]: 1300 µM; Km [3]: 390 µM; Km [4]: 6 to 70 µM

Q: With `COc1c(C)c2c(c(O)c1C/C=C(\C)CCC(=O)OCCN1CCOCC1)C(=O)OC2` [Mycophenolate mofetil] as the compound, how does the IC50 [5, 12] read?
A: 4400 nM

Q: And the EC50 [6, 13]?
A: 1500 nM

Q: What about the “parasitemia in Chagas murine model” value [7] of the same compound?
A: reduction of parasitemia

Q: And the “survival / parasitological cure in Chagas murine model” value [7]?
A: fails to improve survival outcomes or achieve parasitological cure

Q: With `COc1cc(NC(=O)Nc2cccc(CNC(=O)O[C@H]3CCOC3)c2)ccc1-c1cnco1` [(S)-Merimepodib] as the compound, how does the IC50 [5] read?
A: 210 nM

Q: What about the EC50 [6, 13] of the same compound?
A: 4800 nM

Q: Which results are given for `COc1cc(NC(=O)Nc2cccc(CNC(=O)O[C@@H]3CCOC3)c2)ccc1-c1cnco1` [(R)-Merimepodib]?
A: IC50 [5]: 370 nM; EC50 [6, 13]: 3000 nM

Q: With `CC[C@H](CC#N)OC(=O)N[C@@H](C)c1cccc(NC(=O)Nc2ccc(-c3cnco3)c(OC)c2)c1` [AVN-944] as the compound, how does the IC50 [5] read?
A: 200 nM

Q: What about the Ki [5] of the same compound?
A: ~81 nM

Q: And the EC50 ([6]; H9c2, 72 h)?
A: 400 nM

Q: What about the Ki [8] of the same compound?
A: 6 to 10 nM

Q: Which IC50 [5, 12] does the source give for `COc1cc(NC(=O)Nc2cccc(CNC(=O)OC3CCCCC3)c2)ccc1-c1cnco1` [TCMDC-143376] here?
A: 4000 nM

Q: And the inhibition at 10 µM ([9]; 10 μM compound, two independent runs, read-out: inhibition of TcIMPDH in primary screening)?
A: 55 to 60%

Q: And the IC50 ([9]; estimated from inhibition at the fixed concentration 10 μM, read-out: IC50 suggested by screening)?
A: < 10000 nM

Q: And the EC50 [10]?
A: ~15900 nM and 15900 nM

Q: What about the IC50 [11] of the same compound?
A: ~25000 nM

Q: For `NC(=O)c1ncn([C@@H]2O[C@H](CO)[C@@H](O)[C@H]2O)c1O` [Mizoribine], which “inhibition of TcIMPDH activity” value [5] is on record?
A: did not show measurable inhibition; also recorded: inactive

Q: For `O=C(Cn1ccnc1[N+](=O)[O-])NCc1ccccc1` [Benznidazole], which EC50 [6, 13] is on record?
A: 3000 nM
